Among the data in PubChem BioAssay (NCI) are TGI and GI50 values, retold here.

Values joined by “and” are separate entries in the source; they are usually repeats but may differ in a detail not shown here. Equal values may be shown once.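 Compound exposure: 48 hours, 5 concentrations, 96-well plates. GI50 marks 50% less growth. TGI denotes the concentration required for complete inhibition of growth.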

Holding throughout (experiment): NCI tumour cell line growth inhibition, 48 h
Assay [1] relates to SW-620 colon.
In assay [2] the test system is UACC-62 melanoma.
Assay [3] relates to TK-10 renal.
The subject of assay [4] is HT29 colon.
Assay [5] relates to OVCAR-8 ovarian.
The subject of assay [6] is SN12C renal.
For assay [7], the system named is MDA-MB-231 breast.
For assay [8], the system named is MDA-MB-435.
The subject of assay [9] is T-47D breast.
In assay [10] the test system is HS 578T breast.

Turning to `COC(=O)C1=C(CS(=O)c2ccc([N+](=O)[O-])cc2[N+](=O)[O-])ON(C)C1c1ccccc1` (centres undefined), the TGI in assay [1] was 48.4 µM; in assay [2], over 75.2 µM; in [3], over 74.8 µM; in [4] it was 55.2 µM; in assay [5], over 100 µM; in [6] it was over 63.3 µM.

As to `COc1ccc(CCN2CCC(Nc3nc4ccccc4n3Cc3ccc(F)cc3)CC2)cc1`, the GI50 was 1.68 µM in assay [1]; 1.45 µM in assay [7]; 1.41 µM in assay [2]; 1.82 µM in assay [3]; 1.5 µM in [8]; 0.591 µM in assay [4]. Moreover, the GI50 in assay [9] was 1.97 µM; in assay [5] it was 2.02 µM; in [6] it was 1.51 µM. In addition, the TGI in [1] was found to be 5.14 µM; in assay [7], 2.88 µM; in [2], 2.8 µM; in [3], 3.38 µM; in assay [8], 3 µM; in [4], 2.36 µM. The TGI in assay [9] was found to be 4.38 µM; in assay [5] it was 4.52 µM; in assay [6], 2.96 µM.

With `CC(=O)c1ccc(NC(=O)C(=O)C(C(=O)c2ccc(Cl)c(Cl)c2)C2OC(=O)c3ccccc32)cc1` (centres undefined), the TGI in [1] was over 100 µM; in assay [2], 33.7 µM; in assay [3], over 100 µM; in assay [4], 67.7 µM; in assay [5], 27.6 µM; in [6], 59.9 µM.

Turning to `COc1ccc(-c2cc(-c3cc(C)ccc3O)[nH]c(=O)n2)cc1`, the TGI in [1], in [2], in assay [3], in assay [4], in [5] and in [6] was over 100 µM in each case.

In the case of `Cc1ccc(C(=O)C#Cc2c[nH]c(=O)[nH]c2=O)cc1`, the TGI in [1] was 20.9 µM; in assay [2], 21.8 µM; in assay [3] it was 31.9 µM; in assay [4] it was 49.5 µM; in assay [5], 25.1 µM; in assay [6], 16.2 µM.

Turning to `COC1=C2C[C@@H](C)C[C@@H](OC)[C@@H](O)[C@H](C)/C=C(\C)[C@@H](OC(N)=O)[C@H](OC)/C=C\C=C(/C)C(=O)NC(=CC1=O)C2=O`, in assay [8], the TGI was 5.5 µM and 8.63 µM and 5.65 µM. Besides, in assay [10], the GI50 is 1.31 µM and 11.8 µM and 1.25 µM; the TGI is 17.5 µM and 42 µM and 38.2 µM.

Regarding H-HIIKKIRTWYRKAWHVLGKV-NH2, the GI50 is 9.53 µM in [1]; 6.47 µM in assay [7]; 3.24 µM in assay [3]; 5.15 µM in assay [8]; 3.56 µM in assay [10]; 14.8 µM in assay [4]. In addition, the GI50 in assay [5] is 4.74 µM; in assay [6], 2.96 µM. The TGI is over 100 µM in [1]; 22.3 µM in assay [7]; 15.6 µM in [3]; 65.9 µM in assay [8]; 18.7 µM in [10]; over 100 µM in [4]. Moreover, the results for the TGI in [5] and in assay [6] were over 100 µM and 13 µM, respectively.

Take `CCOC(=O)C(=O)Nc1c(C)cccc1C(C)C`: the TGI in assay [1], in assay [2], in assay [3], in assay [4], in assay [5] and in assay [6] was over 100 µM each time.

Regarding `COc1cc(Nc2nc3cc(C(F)(F)F)ccc3nc2-c2ccccc2)cc(OC)c1OC`, the TGI in [1] was over 100 µM; in assay [2], over 100 µM; in assay [3], 77 µM; in [4] it was over 100 µM; in assay [5] it was over 100 µM; in [6] it was over 100 µM.

Turning to `COc1ccccc1C(N)c1ccccc1` (centres undefined), the TGI in assay [1], in assay [2], in [3], in [4], in assay [5] and in assay [6] was over 100 µM each time.

For the compound `COc1cc(-n2cnc(-c3ccc(Cl)cc3)c2)cc(OC)c1OC`, the GI50 in assay [1] is over 100 µM; in assay [7] it was 85.7 µM; in [2] it was 62.4 µM; in assay [3], 15 µM; in [8], 38.4 µM; in assay [10], 49.2 µM. In addition, the results for the GI50 in [4], in [5] and in [6] were 16.1 µM, over 100 µM and over 100 µM, respectively. In addition, the TGI is over 100 µM in [1]; over 100 µM in [7]; over 100 µM in [2]; 37.4 µM in assay [3]; over 100 µM in assay [8]; over 100 µM in [10]. The TGI was 32.8 µM in [4], over 100 µM in [5] and over 100 µM in assay [6].

Regarding `O=NN/C(=C1\Nc2ccc([N+](=O)[O-])cc2NC1=O)C(O)c1ccc([N+](=O)[O-])cc1` (centres undefined), the TGI in assay [1], in assay [2], in assay [4], in [5] and in assay [6] was over 100 µM each time.

Take `c1ccc(CN2CCCCC(Sc3ccccc3)CC2)cc1` (centres undefined): the TGI in [1] was 4.98 µM; in assay [2], over 100 µM; in assay [3] it was over 100 µM; in assay [4], 33.5 µM; in assay [5], over 100 µM; in [6] it was 61.8 µM.

In the case of `COC1OC(COS(=O)(=O)c2ccc(C)cc2)C(O)C(OS(=O)(=O)c2ccc(C)cc2)C1OS(=O)(=O)c1ccc(C)cc1` (centres undefined), the TGI in assay [1], in [4], in assay [5] and in assay [6] was over 100 µM in each case.

With `Cc1c(C(=O)/C=C/c2c(Cl)cccc2Cl)c(=O)n(-c2ccccc2)n1C`, the TGI in assay [1] was 25.9 µM; in assay [2] it was over 100 µM; in assay [3], over 100 µM; in assay [4] it was over 100 µM; in [5], over 100 µM; in [6], over 100 µM.

In the case of `COc1ccc(C(=O)CC(=O)C(=O)Nc2ccc(C)c(C)c2)cc1`, the TGI was over 49.2 µM in [1]; over 100 µM in [2]; over 100 µM in [3]; over 100 µM in [4]; over 100 µM in [5]; over 100 µM in assay [6].

Turning to `CC(=O)OC1CC2C(C)(C)C(=O)C=C[C@]2(C)C2CCC3(C)C(c4ccoc4)[C@@H](O)[C@H]4O[C@]43[C@]12C` (some centres undefined), the TGI in assay [1] was 35.4 µM; in assay [2], 32.5 µM; in assay [3] it was 88.7 µM; in assay [4] it was 40.3 µM; in assay [5], 36.2 µM; in assay [6], 34.1 µM.

As to `NC(=O)Nc1c([N+](=O)[O-])cc(C(F)(F)F)cc1[N+](=O)[O-]`, the TGI in assay [1], in assay [2], in assay [3], in [4], in assay [5] and in [6] was over 100 µM in each case.

Regarding `COC(=O)C1=C(c2ccc3c(c2)OCO3)OC(c2ccc3c(c2)OCO3)C1` (centres undefined), the TGI in assay [1], in [2], in assay [3], in assay [4], in [5] and in assay [6] was over 100 µM throughout.

On to `O=C1OC(c2ccccc2)=N/C1=C\c1cc(Cl)ccc1Cl`, for which the TGI in assay [1], in [2], in assay [4] and in assay [6] was over 100 µM in each case.

On to `CCOC(=O)N[C@@H]1C2CC(=O)C(O2)[C@@H]1OC` (some centres undefined), for which the TGI in [1], in assay [2], in [3], in assay [4], in [5] and in assay [6] was over 100 µM in each case.

As for `O=C(O)c1cccc2cccc(C(=O)O)c12.[Hg]`, the GI50 in [1] is 12.7 µM; in assay [2], over 100 µM; in [3] it was 20.3 µM; in assay [4], 13.8 µM; in [5] it was 20.5 µM; in [6] it was 14.6 µM. In addition, the TGI is 32 µM in assay [1]; over 100 µM in assay [2]; 34.6 µM in assay [3]; 27.2 µM in assay [4]; 46.2 µM in assay [5]; 27.7 µM in assay [6].

Turning to `COC(=O)C(Cc1ccccc1)NC(=O)Cn1ccnc1[N+](=O)[O-]` (centres undefined), the TGI in [1], in assay [2], in assay [3], in [4], in [5] and in [6] was over 100 µM in each case.

Turning to `CCC[CH2][Sn]1([CH2]CCC)[O]CC(CN2CCOCC2)[O]1` (centres undefined), the GI50 in assay [1] was 1.99 µM; in assay [2], 1.79 µM; in [3] it was 4.02 µM; in assay [4], 9.65 µM; in assay [5], 3.35 µM; in assay [6], 5.02 µM. The TGI in assay [1] amounted to 5.44 µM; in assay [2] it was 4.55 µM; in assay [3] it was 12.1 µM; in [4] it was 23.6 µM; in [5] it was 10.8 µM; in [6], 16.7 µM.

For `COc1ccc(C(=O)C(C(=O)C(=O)NC2C3CC4CC(C3)CC2C4)c2ccc(OC)cc2)cc1` (centres undefined), the TGI in assay [1], in [2], in assay [3], in [4], in assay [5] and in assay [6] was over 100 µM in each case.

Regarding `CCCCCNC(=O)c1c(O)[nH]c(=S)[nH]c1=O`, the TGI in assay [1], in assay [2], in [3], in assay [4], in assay [5] and in assay [6] was over 100 µM in each case.

With `CCCc1nc(NC#N)nc(C(=O)NC23CC4CC(CC(C4)C2)C3)c1C`, the TGI in assay [1], in [2], in [3], in assay [4], in assay [5] and in assay [6] was over 100 µM throughout.

For the compound `CN(C)C1=NC2=S(SC(Nc3ccccc3)=N2)S1` (centres undefined), the TGI was over 100 µM in [1]; over 100 µM in assay [2]; 85.5 µM in [3]; over 100 µM in assay [4]; over 100 µM in assay [5]; over 100 µM in [6].

`Nc1ccc(-c2nc3ccccc3o2)cc1S`: the GI50 was 20.7 µM in assay [1]; 6.14 µM in assay [7]; 13.2 µM in assay [2]; 11.6 µM in assay [3]; 17.8 µM in assay [8]; 16.4 µM in assay [10]. The values for the GI50 in [5] and in assay [6] were 20.3 µM and 13.2 µM, respectively. In addition, the TGI in assay [1] amounted to 44.5 µM; in assay [7] it was 23.6 µM; in [2], 26 µM; in assay [3], 29 µM; in assay [8], 36.9 µM; in assay [10] it was 63.8 µM. The results for the TGI in assay [5] and in assay [6] were 58 µM and 27.5 µM, respectively.

For `O=C1c2cc([N+](=O)[O-])cc3cc([N+](=O)[O-])cc(c23)C(=O)N1CCCNCCNCCCN1C(=O)c2cc([N+](=O)[O-])cc3cc([N+](=O)[O-])cc(c23)C1=O`, the TGI in assay [1] was 4.52 µM; in assay [7], 3.45 µM; in assay [2], 1.48 µM; in [3] it was 7.04 µM; in assay [4], 5.25 µM; in assay [9], 6.72 µM. Besides, the TGI was determined as 3.39 µM in assay [5] and 2.2 µM in [6].

`CC1=NC(C(C)C)C(=O)O1` (centres undefined): the TGI in assay [1] is 25.8 µM; in assay [2], over 100 µM; in assay [3] it was over 100 µM; in assay [4] it was over 100 µM; in [5], over 100 µM; in [6], over 100 µM.

Turning to `CC1=CC(=O)c2c(C=O)c(O)c(O)c(C(C)C)c2C1=O`, the TGI in [2] is 56.4 µM; in [5] it was over 56.5 µM; in assay [6], over 100 µM.
